Assay results reported in publication PMC9995496, “A screen for MeCP2-TBL1 interaction inhibitors using a luminescence-based assay” (Scientific Reports, 2023).
Structures can show the parent of a compound that is named as a salt. Where two headings read alike, the source gives them in different places. Bridge positions count the residues as written; N and C are the ends. Square brackets hold non-standard residues; d marks the D form. Peptide text beside a SMILES is read from it. hArg = N=C(N)NCCCC[C@H](N)C(=O)O; Mpa = O=C(O)CCS

System: PRKACA-PRKAR2A interaction (SmBiT-PRKACA / LgBiT-PRKAR2A), protein kinase A
Design: NanoLuc complementation counter-screen in cell extract, PRKACA with PRKAR2A, loss of luminescence, detects NanoLuc interference
Conditions: counter-screen for NanoLuc interference, 0.5 h, 20 µM, inhibitor

For `N=C(N)NCCCC[C@@H]1NC(=O)CCSSC[C@@H](C(N)=O)NC(=O)[C@@H]2CCCN2C(=O)[C@H](Cc2c[nH]c3ccccc23)NC(=O)[C@H](CC(=O)O)NC(=O)CNC1=O` [UM0142520:01, Eptifibatide] ([Mpa][hArg]GDWPC-NH2; disulfide 1-7), the “Inh (PKA)” value was -0.06094%.

In the case of `COc1cccc(CCc2ccccc2OCC(CN(C)C)OC(=O)CCC(=O)O)c1` (stereo not drawn) [UM0142521:01, Sarpogrelate hydrochloride], the “Inh (PKA)” value is reported as 4.065%.

In the case of `O=C(O)Cc1ccccc1Nc1c(Cl)cccc1Cl` [UM0142522:01, Diclofenac], the “Inh (PKA)” value (Inh (PKA)) is reported as 9.074%.

For `O=C1CCCC(=O)C1C(=O)c1ccc(C(F)(F)F)cc1[N+](=O)[O-]` [UM0142524:01, Nitisinone], the “Inh (PKA)” value was 2.396%.

For `CC(=O)Nc1ccc(O)cc1` [UM0142525:01, Acetaminophen], the “Inh (PKA)” value was -0.5181%.

In the case of `O=C(O)c1ccc(N2C(=O)/C(=C\c3ccc(-c4ccc([N+](=O)[O-])cc4)o3)C=C2c2ccccc2)cc1` [UM0142546:01, 4E1RCat], the “Inh (PKA)” value is reported as 43.25%.

With `O=C(COc1ccc(Cl)cc1)N[C@H]1CC[C@H](NC(=O)COc2ccc(Cl)cc2)CC1` [UM0142547:01, ISRIB (trans-isomer)] the “Inh (PKA)” value was 0.7821%.

`CCCCN(Cc1ccc(C(=O)NO)cc1)C(=O)Nc1ccccc1` [UM0142549:01, Nexturastat A] was tested, and the “Inh (PKA)” value was 2.476%.

`Cc1ccc(CNc2ncnc3ccc(-c4ccc(CO)o4)cc23)o1` [UM0142550:01, ML167] was tested, and the “Inh (PKA)” value was 10.94%.

In the case of `CC(C)[C@H](N)C(=O)N1CCC[C@H]1B(O)O` [UM0142552:01, Talabostat mesylate], the “Inh (PKA)” value is reported as -1.148%.

For `CN1CCN(c2ccc(OC(F)(F)F)c(Nc3ncc4c(n3)-c3c(c(C(N)=O)nn3CCO)CC4)c2)CC1` [UM0142553:01, NMS-1286937], the “Inh (PKA)” value was 23.22%.

`Cc1c(F)cc(C(=O)NC2CC2)cc1-c1ccc(C(=O)NCC(C)(C)C)cn1` [UM0142557:01, Losmapimod] was tested, and the “Inh (PKA)” value was 0.7266%.

With `Cc1ccc2nc(NCCN)c3ncc(C)n3c2c1` [UM0142559:01, BMS-345541(free base)] the “Inh (PKA)” value was 1.467%.

For `O=C(NCc1cccc(O)c1)c1cc2cc(F)ccc2[nH]1` [UM0142568:01, KX1-004], the “Inh (PKA)” value was 5.75%.

In the case of `CN(C)c1cccc(-c2c3c(=O)n(-c4ccccc4Cl)[nH]c3cc(=O)n2C)c1` [UM0142578:01, GKT137831], the “Inh (PKA)” value is reported as 41.79%.

For `CN(CC(=O)N(Cc1ccc(C2CCCCC2)cc1)c1ccc(C(=O)O)cc1)S(=O)(=O)c1c(F)c(F)c(F)c(F)c1F` [UM0142580:01, SH-4-54], the “Inh (PKA)” value was 8.361%.

For `O=S(=O)(CC1CS1)c1ccc(Oc2ccccc2)cc1` (stereo not drawn) [UM0142583:01, SB-3CT], the “Inh (PKA)” value was 17.13%.

`CN(C)CCCNC(=O)c1ccc(-c2cc(O)c3ncccc3c2)cc1` [UM0142607:01, ML324] was tested, and the “Inh (PKA)” value was 3.619%.

For `N=C1NC(=O)/C(=C/c2ccc(O)cc2)S1` [UM0142634:01, Mirin], the “Inh (PKA)” value was 13.24%.

In the case of `CC(=O)O/N=C1/C(c2c(O)[nH]c3cc(Br)ccc23)=Nc2ccccc21` [UM0142638:01, BIO-acetoxime], the “Inh (PKA)” value is reported as 40.08%.

With `O=S(=O)(N=Cc1c(O)ccc2ccccc12)c1cccs1` [UM0142640:01, STF 083010] the “Inh (PKA)” value was 10.66%.

With `O=C(Nc1cccnc1)c1cc(-c2ccnc(F)c2)ccc1OCc1ccccc1` [UM0142641:01, GSK2578215A] the “Inh (PKA)” value was 10.96%.

With `Cc1cc(C)c(S(=O)(=O)n2cc(C)cc2C)c(C)c1` [UM0142646:01, HJC 0350] the “Inh (PKA)” value was 24.94%.

For `N[C@@H](CCNCc1ccc(Cl)cc1)C(=O)N1CCCCC1` [UM0142648:01, UAMC 00039 dihydrochloride], the “Inh (PKA)” value was -0.6597%.

With `Cn1cc(-c2ccc(F)c(C(F)(F)F)c2)nc1C1CCN(c2ncnc3[nH]ncc23)CC1` [UM0142649:01, LY2584702] the “Inh (PKA)” value was 26.28%.

In the case of `CS(=O)(=O)c1ccc(-c2nnc(/C=C/c3nnc(-c4ccc(C#N)cc4)o3)n2-c2ccccc2Cl)nc1` [UM0142653:01, G007-LK], the “Inh (PKA)” value is reported as 3.502%.

`Cc1cc(C)c(CNC(=O)c2cc(-c3ccc(N4CCN(C)CC4)nc3)cc3c2c(C)cn3C(C)C)c(=O)[nH]1` [UM0142656:01, GSK503] was tested, and the “Inh (PKA)” value was 4.717%.
